Molecules are shown by their SMILES.

This assay addresses T1, Mitochondrial Lon Peptidase 1 (LonP1) (Homo sapiens, UniProt P36776).
T1 construct: LonP1 immunopurified from mitochondria of HOG cells overexpressing LonP1
T1 sequence (P36776 68-959): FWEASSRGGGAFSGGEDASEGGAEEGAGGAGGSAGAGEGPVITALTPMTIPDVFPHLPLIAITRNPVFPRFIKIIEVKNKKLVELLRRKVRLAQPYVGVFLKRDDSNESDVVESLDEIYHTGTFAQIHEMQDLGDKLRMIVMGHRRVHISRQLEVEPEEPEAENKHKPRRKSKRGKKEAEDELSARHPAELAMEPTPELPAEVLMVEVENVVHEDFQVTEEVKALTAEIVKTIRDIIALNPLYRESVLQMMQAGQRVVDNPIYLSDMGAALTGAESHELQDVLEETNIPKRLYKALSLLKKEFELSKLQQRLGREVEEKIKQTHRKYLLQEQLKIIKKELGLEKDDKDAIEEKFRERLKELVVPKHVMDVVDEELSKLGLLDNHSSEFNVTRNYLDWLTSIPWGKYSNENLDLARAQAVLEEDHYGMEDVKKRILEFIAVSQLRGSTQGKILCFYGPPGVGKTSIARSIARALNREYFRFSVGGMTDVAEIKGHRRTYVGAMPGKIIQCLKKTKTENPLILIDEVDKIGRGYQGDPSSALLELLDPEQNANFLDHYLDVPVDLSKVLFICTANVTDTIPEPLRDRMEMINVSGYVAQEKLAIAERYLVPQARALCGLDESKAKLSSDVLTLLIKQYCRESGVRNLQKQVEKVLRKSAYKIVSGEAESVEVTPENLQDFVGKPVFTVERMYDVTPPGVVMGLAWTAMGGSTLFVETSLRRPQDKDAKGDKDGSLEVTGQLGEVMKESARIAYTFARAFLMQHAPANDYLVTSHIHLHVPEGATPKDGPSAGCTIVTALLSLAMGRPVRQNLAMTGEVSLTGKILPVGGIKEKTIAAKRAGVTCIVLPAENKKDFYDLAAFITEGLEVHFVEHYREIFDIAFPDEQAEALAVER
Put plainly: FITC-casein fluorescent protease assay with immunopurified LonP1. Type of assay: biochemical.
Take `Cc1cc(NC(C#N)C2=Cc3cc(Cl)cc(Cl)c3OC2c2ccccc2)ccc1B1OC(C)(C)C(C)(C)O1` (stereo not shown) [BT395]: the concentration for half-maximal inhibition (IC50) – broadly, the concentration at which inhibition is half-maximal – came out at 50 µM.
Next, `O=C(Nc1ccc(O)cc1)c1cc2cc(Cl)ccc2oc1=O` [BT317]: 31.2 µM.
Next, `CC1(C)OB(c2cccc(N(Cc3ccccc3)C(=O)CCl)c2)OC1(C)C` [BT399]: 124 µM.
In turn, `Cc1cc(NC(C#N)C2=Cc3cc(Cl)cc(Cl)c3OC2c2ccccc2)ccc1[B-](F)(F)F` (stereo not shown) [BT397] displayed a half-maximal inhibitory concentration (IC50) of 34.5 µM.

The record behind these values is PMC12952243, “Dual targeting of the mitochondrial Lon peptidase 1 and the chymotrypsin-like proteasome activity as a potential therapeutic strategy in malignant astrocytoma models” (Pharmacological research, 2024).
